Tests used:
[1] = DRUGMATRIX: Glutamate, NMDA, Phencyclidine radioligand binding (ligand: [3H] TCP); assay type: cell membranes, Rattus norvegicus, Wistar, Cerebral cortex, Membrane; conditions: Not Active = under 50% inhibition at 10 µM
[2] = target: Melanocortin receptor 3 (Homo sapiens, UniProt P41968); assay type: cell membranes, Membrane; conditions: hek293; also: in other assays of this panel Not Active means under 50% inhibition at 10 µM
[3] = DRUGMATRIX: GABAA, Chloride Channel, TBOB radioligand binding (ligand: [3H] TBOB); assay type: cell membranes, Rattus norvegicus, Wistar, Cerebral cortex, Membrane; conditions: Not Active = under 50% inhibition at 10 µM
[4] = target: T1, Caspase-1 (Homo sapiens, UniProt P29466); design: species or system Escherichia coli;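 also: Caspase-1 enzyme inhibition assay with a peptide substrate; in other assays of this panel Not Active means under 50% inhibition at 10 µM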
T1 sequence (P29466 whole entry): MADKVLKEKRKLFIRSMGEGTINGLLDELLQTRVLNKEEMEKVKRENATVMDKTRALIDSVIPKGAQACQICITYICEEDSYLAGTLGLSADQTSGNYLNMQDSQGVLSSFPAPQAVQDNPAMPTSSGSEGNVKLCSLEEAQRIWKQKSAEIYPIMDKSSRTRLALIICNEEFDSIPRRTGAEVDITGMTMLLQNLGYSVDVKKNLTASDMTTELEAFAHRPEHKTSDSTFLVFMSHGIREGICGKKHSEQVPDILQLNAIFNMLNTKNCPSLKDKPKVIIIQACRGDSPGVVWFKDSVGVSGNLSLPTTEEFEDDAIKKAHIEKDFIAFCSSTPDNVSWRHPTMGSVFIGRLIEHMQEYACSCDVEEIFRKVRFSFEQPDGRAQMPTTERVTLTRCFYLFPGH

[5] = target: 5-hydroxytryptamine receptor 6 (Homo sapiens, UniProt P50406); assay type: cell membranes, HeLa, Membrane; conditions: hela; also: in other assays of this panel Not Active means under 50% inhibition at 10 µM
[6] = DRUGMATRIX: Potassium Channel [KATP] radioligand binding (ligand: [3H] Glyburide); assay type: cell membranes, Membrane; conditions: hit-t15; Not Active = under 50% inhibition at 10 µM

5-hydroxytryptamine receptor 6, sequence (P50406 whole entry): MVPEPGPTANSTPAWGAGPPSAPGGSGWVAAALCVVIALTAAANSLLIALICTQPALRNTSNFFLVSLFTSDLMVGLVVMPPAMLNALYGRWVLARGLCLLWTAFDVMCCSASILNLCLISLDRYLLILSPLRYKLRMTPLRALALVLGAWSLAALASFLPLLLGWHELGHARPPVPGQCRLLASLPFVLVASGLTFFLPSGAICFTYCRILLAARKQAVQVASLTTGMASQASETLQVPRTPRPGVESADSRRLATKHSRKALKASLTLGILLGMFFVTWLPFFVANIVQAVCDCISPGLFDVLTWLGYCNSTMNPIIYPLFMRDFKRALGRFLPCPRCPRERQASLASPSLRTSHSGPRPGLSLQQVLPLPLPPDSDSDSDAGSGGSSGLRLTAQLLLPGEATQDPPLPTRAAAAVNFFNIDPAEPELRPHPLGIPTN
Melanocortin receptor 3, sequence (P41968 whole entry): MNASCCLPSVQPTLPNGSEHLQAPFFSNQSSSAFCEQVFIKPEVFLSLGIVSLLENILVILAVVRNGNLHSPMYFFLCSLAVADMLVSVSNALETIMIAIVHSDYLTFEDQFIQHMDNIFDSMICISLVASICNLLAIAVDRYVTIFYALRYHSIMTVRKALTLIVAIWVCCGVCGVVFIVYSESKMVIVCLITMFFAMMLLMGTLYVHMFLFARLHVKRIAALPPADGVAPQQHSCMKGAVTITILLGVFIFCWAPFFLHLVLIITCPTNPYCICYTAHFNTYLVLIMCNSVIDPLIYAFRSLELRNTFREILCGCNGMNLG

CC(C)(C)NCC(O)COc1cccc2c1CC(O)C(O)C2 (centres undefined) [NADOLOL]
Not Active: IC50 [1] | Ki [1] | IC50 [2] | IC50 [3] | Ki [3] | IC50 [4] | IC50 [5] | IC50 [6] | Ki [6]

C[C@]12CC[C@H]3[C@@H](CCC4=CC(=O)CC[C@@H]43)[C@@H]1CC[C@@H]2O [NANDROLONE]
Not Active: IC50 [1] | Ki [1] | IC50 [2] | IC50 [3] | Ki [3] | IC50 [4] | IC50 [5] | IC50 [6] | Ki [6]

C[C@@H]1C/C=C/C=C/C=C/C=C/[C@H](O[C@@H]2O[C@H](C)[C@@H](O)[C@H](N)[C@@H]2O)C[C@@H]2O[C@](O)(C[C@@H](O)C[C@H]3O[C@@H]3/C=C/C(=O)O1)C[C@H](O)[C@H]2C(=O)O [NATAMYCIN]
Not Active: IC50 [1] | Ki [1] | IC50 [2] | IC50 [3] | Ki [3] | IC50 [4] | IC50 [5] | IC50 [6] | Ki [6]

CN(C)C(=O)Oc1cccc([N+](C)(C)C)c1.[Br-] [NEOSTIGMINE BROMIDE]
Not Active: IC50 [1] | Ki [1] | IC50 [2] | IC50 [3] | Ki [3] | IC50 [4] | IC50 [5] | IC50 [6] | Ki [6]

NC(=O)c1cccnc1 [NIACINAMIDE]
Not Active: IC50 [1] | Ki [1] | IC50 [2] | IC50 [3] | Ki [3] | IC50 [4] | IC50 [5] | IC50 [6] | Ki [6]

CS(=O)(=O)Nc1ccc([N+](=O)[O-])cc1Oc1ccccc1 [NIMESULIDE]
Not Active: IC50 [1] | Ki [1] | IC50 [2] | IC50 [3] | Ki [3] | IC50 [4] | IC50 [5] | IC50 [6] | Ki [6]

CN1C(=O)CN=C(c2ccccc2)c2cc([N+](=O)[O-])ccc21 [NIMETAZEPAM]
Not Active: IC50 [1] | Ki [1] | IC50 [2] | IC50 [3] | Ki [3] | IC50 [4] | IC50 [5] | IC50 [6] | Ki [6]

COc1ccc2c(c1OC)C(=O)O[C@@H]2[C@H]1c2c(cc3c(c2OC)OCO3)CCN1C [NOSCAPINE]
Not Active: IC50 [1] | Ki [1] | IC50 [2] | IC50 [3] | Ki [3] | IC50 [4] | IC50 [5] | IC50 [6] | Ki [6]

C[C@@H]1O[C@@H](O[C@H]2C[C@@H](O)[C@]3(CO)[C@H]4[C@H](O)C[C@]5(C)[C@@H](C6=CC(=O)OC6)CC[C@]5(O)[C@@H]4CC[C@]3(O)C2)[C@H](O)[C@H](O)[C@H]1O [OUABAIN]
Not Active: IC50 [1] | Ki [1] | IC50 [2] | IC50 [3] | Ki [3] | IC50 [4] | IC50 [5] | IC50 [6] | Ki [6]

NC(=O)N1c2ccccc2CC(=O)c2ccccc21 [OXCARBAZEPINE]
Not Active: IC50 [1] | Ki [1] | IC50 [2] | IC50 [3] | Ki [3] | IC50 [4] | IC50 [5] | IC50 [6] | Ki [6]

COc1ccnc(C[S+]([O-])c2nc3ccc(OC(F)F)cc3[nH]2)c1OC (centres undefined) [PANTOPRAZOLE]
Not Active: IC50 [1] | Ki [1] | IC50 [2] | IC50 [3] | Ki [3] | IC50 [4] | IC50 [5] | IC50 [6] | Ki [6]

N=C(N)c1ccc(OCCCCCOc2ccc(C(=N)N)cc2)cc1 [PENTAMIDINE]
Not Active: IC50 [1] | Ki [1] | IC50 [2] | IC50 [3] | Ki [3] | IC50 [4] | IC50 [5] | IC50 [6] | Ki [6]

NNCCc1ccccc1 [PHENELZINE]
Not Active: IC50 [1] | Ki [1] | IC50 [2] | IC50 [3] | Ki [3] | IC50 [4] | IC50 [5] | IC50 [6] | Ki [6]

CCc1ccc(CCOc2ccc(CC3SC(=O)NC3=O)cc2)nc1 (centres undefined) [PIOGLITAZONE]
Not Active: IC50 [1] | Ki [1] | IC50 [2] | IC50 [3] | Ki [3] | IC50 [4] | IC50 [5] | IC50 [6] | Ki [6]

CCCNC(C)C(=O)Nc1ccccc1C (centres undefined) [PRILOCAINE]
Not Active: IC50 [1] | Ki [1] | IC50 [2] | IC50 [3] | Ki [3] | IC50 [4] | IC50 [5] | IC50 [6] | Ki [6]

CCN(CC)CCNC(=O)c1ccc(N)cc1 [PROCAINAMIDE]
Not Active: IC50 [1] | Ki [1] | IC50 [2] | IC50 [3] | Ki [3] | IC50 [4] | IC50 [5] | IC50 [6] | Ki [6]

From ChEMBL document CHEMBL1909046, “DrugMatrix in vitro pharmacology data”
